Article PMC10321483 (Chemical Science, 2023)
Values joined by “and” are separate entries in the source; they are usually repeats but may differ in a detail not shown here. Identical values can stand only once. Like-named read-outs stand apart in the source and are kept apart here.

How the values were obtained:
[1] = tested on: M. tuberculosis (strain H37Rv); experiment: Extracellular assay: M. tuberculosis H37Rv in medium under replicating conditions; type: cell-based, Mycobacterium tuberculosis
[2] = target: T1, LdtMt2 (Mycobacterium tuberculosis, UniProt I6Y9J2); experiment: biochemical; type: biochemical; design: made in house; host or cells: E. coli; conditions: for IC50: Table S5 HTS hits, 30 minute inhibitor pre-incubation, two independent repeats, read-out: pIC50 LdtMt2 (converted)
T1 sequence (I6Y9J2 56-408): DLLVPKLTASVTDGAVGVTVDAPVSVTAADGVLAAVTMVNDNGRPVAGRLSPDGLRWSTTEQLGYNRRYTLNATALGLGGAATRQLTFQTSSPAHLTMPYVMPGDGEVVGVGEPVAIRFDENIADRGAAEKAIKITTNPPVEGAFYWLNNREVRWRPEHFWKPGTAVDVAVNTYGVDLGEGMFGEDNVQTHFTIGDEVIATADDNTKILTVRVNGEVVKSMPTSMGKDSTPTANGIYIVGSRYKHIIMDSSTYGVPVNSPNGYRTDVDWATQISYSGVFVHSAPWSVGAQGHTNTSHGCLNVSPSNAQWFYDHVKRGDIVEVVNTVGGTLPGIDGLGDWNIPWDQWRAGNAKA

[3] = target: T2, BlaC (Mycobacterium tuberculosis, UniProt P9WKD3); experiment: BlaC fluorogenic inhibition assay with FC5 (dose-response); type: biochemical; conditions: Table S5 HTS hits, 30 minute inhibitor pre-incubation, two independent repeats; for IC50: pIC50 BlaC
T2 construct: made in house; host or cells: E. coli
T2 sequence (P9WKD3 35-307): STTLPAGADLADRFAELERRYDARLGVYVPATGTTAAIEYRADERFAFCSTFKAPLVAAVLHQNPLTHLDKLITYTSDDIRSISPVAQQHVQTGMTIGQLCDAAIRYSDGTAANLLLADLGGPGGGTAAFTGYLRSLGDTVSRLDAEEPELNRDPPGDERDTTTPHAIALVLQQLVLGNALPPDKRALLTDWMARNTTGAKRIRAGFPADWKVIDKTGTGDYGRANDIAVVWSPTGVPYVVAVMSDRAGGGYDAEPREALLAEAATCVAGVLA
Procedure: Two types of controls were used. […] In control 2, the BlaC mixture was substituted with the assay buffer. This mixture was incubated for 30 minutes at room temperature without shaking. […] Data were analysed using ActivityBase (IDBS).

[4] = tested on: M. tuberculosis (strain H37Rv) growth in THP1 cells; experiment: Intracellular assay: Mtb H37Rv-Luc in THP-1 macrophages; type: cell-based, Mycobacterium tuberculosis; conditions: 5 days, extrapolated from dose-response curve
[5] = target: T1, LdtMt2; experiment: Rate constant of covalent target inactivation (kinact/KI), endpoint competition assay with probe 2; type: biochemical; design: made in house; host or cells: E. coli
[6] = target: T1, LdtMt2; experiment: biochemical; type: binding; design: made in house; host or cells: E. coli; conditions: for ΔTm at 500 µM: read-out: ΔTm: difference in melting point of LdtMt2 relative to unreacted LdtMt2 (43.8 °C)
Procedure: LdtMt2 (5 μM) was incubated with the inhibitor (500 μM) in assay buffer (50 mM tris pH 7.5) for 30 minutes at room temperature in 96-well white PCR plates (25 μL final volume, Starlab). SYPRO Orange (final concentration 6×, according to manufacturer's definition, Invitrogen) was then added and the plate was sealed using a transparent plastic film (Polyolefin StarSeal, Starlab). Fluorescence was monitored (with λex = 492 nm and λem = 610 nm) using a CFX96 Touch Real-Time PCR Detection System (Bio-Rad), while the temperature was increased from 20 to 95 °C in increments of 0.2 °C. Melting temperatures (Tms) were determined using the CFX Maestro Software (Bio-Rad).

[7] = Intrinsic thiol reactivity (kchem), competition with probe 2 for L-glutathione; type: physicochemical; conditions: Table S5; L-glutathione 500 nM, probe 2 10 µM, 15 h
[8] = tested on: HepG2 cells; experiment: HepG2 cytotoxicity assay (CellTiter Glo); type: cell-based; conditions: 48 h, ATP read-out
Procedure: Solutions of the test compounds (250 nL per well; 11 serial dilutions of 1/3 with starting concentration 100 μM) were dispensed in tissue-culture treated black clear-bottomed 384-well plates (Greiner, cat. no. 781091) with an Echo 555 instrument. 25 μL of HepG2 (ATCC HB-8065) cells (∼3000 cells per well) grown to confluency in Eagle's Minimal Essential Medium (MEM) supplemented with 10% (v/v) heat-inactivated FBS, 1% (v/v) non-essential amino acids (NEAA), and 1% (v/v) penicillin/streptomycin were added to each well. Plates were incubated at 37 °C with 20% O2 and 5% CO2 for 48 h. The plates were then equilibrated to room temperature. ATP levels, measured with CellTiter Glo kit (Promega), were used as cell viability read-out. 25 μL of CellTiter Glo substrate dissolved in the buffer was added to each well. Plates were incubated at room temperature for 10 min and read on ViewLux (PerkinElmer) […].

[9] = 100 nM LdtMt2, 10 µM probe 2, 3 h incubation, n=4
[10] = 5 µM LdtMt2, 500 µM inhibitor, SYPRO Orange, 50 mM Tris pH 7.5

| SMILES | LE (ligand efficiency) [2] | pIC50 BlaC [3] | LE (ligand efficiency) ([2]; Table S5, for LdtMt2) | IC50 [2] | IC50 [3] | Tm: melting point of LdtMt2 after pre-incubation with the compound [6, 10] | ΔTm at 500 µM [6] | kinact/KI [5] | ΔTm: difference in melting point of LdtMt2 relative to unreacted LdtMt2 (43.8 °C) [6] | Tm: melting point of LdtMt2 after pre-incubation with the compound ([6]; pH 7.5, in °C (unit assumed)) | further results |
| --- | --- | --- | --- | --- | --- | --- | --- | --- | --- | --- | --- |
| O=C(NC(Cc1ccccc1)C(=O)CCl)c1cc(Cc2ccccc2)on1 (stereo not drawn) [Compound 1] | 0.41 | < 4.0 |  |  |  |  |  |  |  |  | MIC50 [1]: > 100 µM; MIC50 intracellular [4]: 35.5 ± 4.9 µM and < 50 µM; kinact/KI [5, 9]: 1152 ± 87 M⁻¹ s⁻¹ |
| CCC(C)C(NC(=O)OCc1ccccc1)C(=O)CCl (stereo not drawn) [Compound 2] |  |  | 0.56 | 77.6 nM | > 100000 nM | 43.7 ± 0.09 °C | -0.1 °C | 68.4 ± 3.5 M⁻¹ s⁻¹ |  |  |  |
| O=C1C=CC(=O)N1c1ccccc1 [Compound 3] |  |  | 0.86 | 70.8 nM | 9330 nM | 45.0 ± 0.16 °C | 1.2 °C | 3990 ± 356 M⁻¹ s⁻¹ |  |  |  |
| CS(=O)(=O)c1ccc(F)c(N2C(=O)C=CC2=O)c1 [Compound 4] |  |  | 0.62 | 87.1 nM | 60300 nM | 45.6 ± 0.28 °C | 1.8 °C | 36.5 ± 7.9 M⁻¹ s⁻¹ |  |  |  |
| COc1cccc(NC(=O)/C(Cl)=C(\Cl)S(=O)(=O)Cc2ccccc2Cl)n1 [Compound 8] |  |  | 0.43 | 69.2 nM | > 100000 nM |  | 0.7 °C | 91.6 ± 2 M⁻¹ s⁻¹ |  |  |  |
| Cc1ccc(C=CC(=O)Nc2ccccc2C(N)=O)o1 [Compound 11] | 0.56 | < 4.0 |  |  |  |  |  |  | +0.2 | 44.0 ± 0.16 | kinact/KI [5, 9]: 172 ± 6.0 M⁻¹ s⁻¹ |
| O=C1CN(C(=O)C=Cc2ccco2)c2ccccc2N1 [Compound 12] | 0.56 | < 4.0 |  |  |  |  |  |  | +0.3 | 44.1 ± 0.09 | kchem (apparent intrinsic thiol reactivity) [7]: 0.55 ± 0.11 M⁻¹ s⁻¹ |
| NC(=O)C=CC(=O)Nc1ccc(Cl)cc1 [Compound 13] |  |  | 0.75 | 417 nM | > 100000 nM | 44.8 ± 0.00 °C | 1 °C |  |  |  | kinact/KI ([5]; 100 nM LdtMt2, 10 µM probe 2, 3 h incubation, n=4, read-out: kinact/KI): 6.48 ± 0.11 M⁻¹ s⁻¹ |
| O=c1c2cc(Cl)c(Cl)cc2sn1CCO [Compound 15] |  |  | 0.74 | 10.2 nM | 427 nM | 43.5 ± 0.09 °C | -0.3 °C |  |  |  | MIC50 ([1]; Mycobacterium tuberculosis): > 100 µM; IC50 ([8]; Homo sapiens, HepG2): 9550 ± 220 nM |
| COc1ccc(CN2C(=O)C(=O)c3cc(Br)cc(C)c32)cc1OC [Compound 17] | 0.47 | < 4.0 |  |  |  |  |  |  | +3.0 | 46.8 ± 0.00 | MIC50 [1]: > 100 µM; kchem (apparent intrinsic thiol reactivity) [7]: < 0.08 M⁻¹ s⁻¹; pIC50, 0 min [2]: 6.48 ± 0.14; pIC50, 10 min [2]: 6.33 ± 0.14; pIC50, 60 min [2]: 6.28 ± 0.45; pIC50, 120 min [2]: 6.45 ± 0.26; IC50 [8]: 53500 ± 6700 nM |
| NC(=O)OCC1=C(C(=O)O)N2C(=O)C(NC(=O)C(=CS(=O)(=O)CCc3ccc(O)c(O)c3)c3csc(N)n3)C2SC1 (stereo not drawn) [Compound 20] | 0.28 | 7.72 |  |  |  |  |  |  | -1.1 | 42.7 ± 0.25 | MIC50 [1]: > 100 µM; MIC50 intracellular [4]: 38.9 ± 1.8 µM and < 50 µM; IC50 [8]: > 100000 nM |
| N#Cn1c(-c2ccc(F)cc2C(F)(F)F)nc2ccccc21 [Compound 22] |  |  | 0.51 | 29.5 nM | > 100000 nM | 42.5 ± 0.09 °C | -1.3 °C | 55.1 ± 3 M⁻¹ s⁻¹ |  |  |  |
